Assay results published in patent US10577322B2, “5-methoxytryptophan and its derivatives and uses thereof” (National Health Research Institutes, priority 2015, dated 2020).

Legend:
NF-κB = NF-κB promoter-luciferase assay in RAW264.7 cells; type: cell-based, mouse; details: LPS 8 h
Procedure: (§1) RAW264.7 macrophages were cotransfected with COX-2 promoter-luciferase, IL-6 promoter-luciferase constructs as previously described (Lee, G. L., et al.) or p5xNF-κB-luciferase (Stratagene) and pcDNA3.1-β-galactosidase plasmids using FuGENE 6 (Roche). After overnight transfection, the cells were incubated with or without LPS in the presence or absence of 5-MTP for 8 h. After treatment, cells were lysed, and luciferase activity was measured using an assay kit (Promega). β-galactosidase activity was used to normalize the data.
After pretreating RAW264.7 cells with different concentrations of 5-MTP for 30 min, cells were stimulated with LPS for 8 h. NF-κB promoter activity as measured by NF-κB promoter-luciferase assay.

CLP = experiment: Cecal ligation and puncture (CLP) model, survival; type: in vivo, mice
Excerpt: To confirm the protective effect of 5-MTP in endotoxemia, we used cecal ligation and puncture (CLP) model in mice. 5-MTP-afforded protection was also observed in mice challenged with CLP.

IL-6 = experiment: LPS-induced IL-6 level in RAW264.7 culture supernatants (ELISA); type: cell-based, mouse; details: RAW264.7 cells; for LPS-induced IL-6 level in culture supernatants: 30 min pretreatment, LPS 24 h
Procedure: Mouse RAW264.7 macrophages were from the American Type Culture Collection and cultured in DMEM containing 10% FBS. […] The duration of LPS (100 ng/ml) treatment varied depending on the experiment.
Moreover, RAW264.7 cells and IL-6 promoter-luciferase plasmid transfected RAW264.7 cells were pretreated with different concentrations of 5-MTP for 30 min, followed by LPS stimulation for 8 h. IL-6 promoter activity was measured by luciferase assay. IL-6 level in culture supernatants was measured by ELISA.
Furthermore, RAW264.7 cells were treated with different concentrations of 5-MTP or 5-MTPE for 24 h. Cell viability was determined by MTT assay. In another experiment, after pretreating RAW264.7 cells with different concentrations of 5-MTP or 5-MTPE for 30 min, cells were stimulated with LPS for 24 h. IL-6 level in culture supernatants was measured by ELISA.
(§2) Herein, after pretreating RAW264.7 cells with different concentrations of 5-MTP, 5-MTPE, COX-2 inhibitors (NSC398 or SC560) and NF-κB inhibitor JSH-23 for 30 min, cells were stimulated with LPS. In addition, RAW264.7 cells were also transfected with COX-2 promoter-luciferase plasmid. After 24 h transfection, the cells were incubated with LPS for 8 h. Luciferase activity as measured.

COX-2 promoter = experiment: COX-2 promoter-luciferase assay in RAW264.7 cells; type: cell-based, mouse; details: for LPS-induced COX-2 promoter activity (luciferase): LPS 8 h
Procedure: as §1
After pretreating mouse macrophage RAW264.7 cells with different concentrations of 5-MTP for 30 min, cells were stimulated with LPS for 8 h. Cell lysates were immunoblotted with antibodies for COX-2 or β-actin. In addition, RAW264.7 cells were transfected with COX-2 promoter-luciferase plasmid. After 24 h transfection, the cells were incubated with LPS for 8 h. Luciferase activity was measured. The experiments were repeated 3 times with similar results. The results shown in FIGS. 3A-3B confirmed that 5-MTP blocked LPS-induced COX-2 protein expression and promoter activity in a concentration-dependent manner in RAW264.7 cells.
as §2

[1] = system: LPS-induced cytokine production; type: cell-based, mouse
Procedure: Mouse RAW264.7 macrophages were from the American Type Culture Collection and cultured in DMEM containing 10% FBS. Cells were typically pre-incubated with or without 5-MTP (Sigma-Aldrich) for 30 min before LPS treatment, unless specified otherwise. The duration of LPS (100 ng/ml) treatment varied depending on the experiment.
Cytokine levels in the culture supernatants and serum were determined in microtiter plates (96-well) by a specific sandwich ELISA (Biosource) as previously described (Wu, J. Y. & Kuo, C. C. Pivotal role of ADP-ribosylation factor 6 in Toll-like receptor 9-mediated immune signaling. J Biol Chem 287, 4323-4334 (2012)) (Lee, G. L., et al. TLR 2 induces vascular smooth muscle cell migration through cAMP response element-binding protein-mediated interleukin-6 production. Arterioscler Thromb Vasc Biol 32, 2751-2760 (2012); hereinafter, Lee, G. L., et al.).

NF-κB p65 = experiment: Phospho-p65 in peritoneal macrophage lysates (ELISA kit); type: cell-based, mouse; details: peritoneal macrophages, 5-MTP 50 μM
Procedure: Furthermore, after pretreating RAW264.7 cells with different concentrations of 5-MTP for 30 min, cells were stimulated with. LPS for 4 h. NF-κB p65, phospho-NF-κB p65 (p-p65) (Ser536) or β-actin was determined by immunoblotting with specific antibodies. Also, peritoneal macrophages were treated with LPS with or without 5-MTP (50 μM) for the indicated time. Phospho-p65 in the lysates was analyzed by an ELISA kit. The results are shown in FIG. 10D, in which the error bars denote mean ±SD (n=3). According to FIGS. 10C-10D, 5-MTP decreased LPS-induced phosphorylation of NF-κB p65 not only in RAW264.7 cells (FIG. 10C) but also in peritoneal macrophages (FIG. 10D).

COX-2 = experiment: PMA-induced COX-2 expression in A549 cells (immunoblot); type: cell-based; details: for PMA-induced COX-2 protein expression: 30 min pretreatment, PMA 8 h
Procedure: Cellular protein were resolved by 5% to 20% SDS-PAGE and transferred to nitrocellulose membranes and blotted with specific antibodies as previously described (Lee, G. L., et al.).
After pretreating A549 cells with different concentrations of 5-MTP, 5-MTPE and NACT-5-MTP for 30 min, cells were stimulated with PMA for 8 h. Cell lysates were immunoblotted with antibodies for COX-2 or β-actin.

Compound	NF-κB promoter activity (transactivation) (NF-κB)	duration of improved survival (CLP)	survival at day 2 (CLP; 5-MTP 30 mins after surgery)	LPS-induced IL-6 level in culture supernatants (IL-6)	LPS-induced IL-6 protein expression (IL-6; LPS 8 h)	LPS-induced COX-2 promoter activity (luciferase) (COX-2 promoter)	Suppressive activity in LPS-induced cytokine production [1]	LPS-induced phosphorylation of NF-κB p65 (NF-κB p65)	PMA-induced COX-2 protein expression (COX-2)	LPS-induced IL-6 level in culture supernatants (IL-6; listed as 5MTPE)	suppressive capacity on IL-6 production in comparison with 5-MTP, COX-2 inhibitors (IL-6; 24 h after LPS)	IL-6 suppressive activity compared with JSH-23 (IL-6; LPS)	COX-2 suppressive activity compared with JSH-23 (COX-2 promoter; LPS)	COX-2 suppressive activity compared with 5-MTP (COX-2; PMA)
COc1ccc2[nH]cc(C[C@H](N)C(=O)O)c2c1 [5-MTP, 5-methoxytryptophan]	suppressed NF-κB transactivation in a concentration-dependent manner	maintained up to day 6	44.4%	dose-dependently blocked	inhibited	dose-dependently blocked	+	decreased	suppress					
COC(=O)C(N)Cc1c[nH]c2ccc(OC)cc12 (centres unmarked) [5-MTPE, ester-5-MTP]				significantly inhibited		dose-dependently blocked			dose-dependently blocked	dose-dependently blocked	better suppressive capacity	potent than that of NF-κB inhibitor JSH-23	potent than that of NF-κB inhibitor JSH-23	potent than that of 5-MTP
